{
  "source": "patent US20250099407A1",
  "about": "“2-AMINO BENZOPHENONE DERIVATIVES FOR TARGETED FERROPTOSIS INDUCTION IN CANCER THERAPY” (INDIAN INSTITUTE OF TECHNOLOGY KANPUR, priority 2023, published 2025)",
  "type_in_all_cases": "cell-based",
  "key": {"[1]": {"test_system": "Huh-7 cells", "test": "Intracellular ROS, H2-DCFDA oxidation assay in Huh-7 cells", "conditions": "Huh-7, 37° C., 30 min; IITK3001 and IITK3002 20 μM, H2O2 100 μM", "method": "We used fluorescence imaging-based oxidation of H2-DCFDA by ROS for assessing intracellular oxidative stress. Huh-7 cells were treated at 37° C. for 30 min with IITK3001 and IITK3002 (20 μM), H2O2 (100 μM), ^tertBuOOH (20 μM), NAC (0.5 mM) and 0.1% DMSO as control. Each experiment was conducted in more than two biological replicates with three technical replicates.\nb. Effect of Thiols and Ferroptosis Modulators on the Hit Molecules' Antiproliferative Potency: Ferroptosis is directly controlled by the intracellular thiol concentrations in the form of cysteine and glutathione. Several oxidative mechanisms are well-wired in ferroptotic cell death and we set out to investigate the precise molecular mechanism of our lead molecules. Both cysteine and glutathione (GSH) are the enriched thiol-containing small molecule antioxidant system that are essential regulators of redox modulation in cells including ferroptosis. Further, the enzyme glutathione peroxidase 4 (GPX4) is well characterized to specifically quench the lipid peroxide equivalents in cells through the conversion of […] in cells thereby restoring the reduced environment in cells. Therefore, first, we assessed the ability of N-acetylcysteine (NAC) and GSH to suppress our lead molecules antiproliferative activity (FIG. 4a, b). We found a drastic reduction in the molecules' potency with IITK3001 (>1000-fold reduction) and IITK3002 (>500-fold reduction) (FIG. 14a, b). Supporting that, the addition of DL-Buthionine sulfoximine (BSO), an inhibitor of y-glutamylcysteine synthetase (glutathione biosynthesis) combination with our lead molecules potentiated the overall inhibitory capacity (FIG. 14a, b). […] Finally, we assessed the effect of Ferrostain-1 (Fer-1) and Liproxstatin-1 (Lip-1), antioxidants that function by trapping reactive radicals in cells, particularly lipid-peroxide radicals, and preventing the accumulation of lipid peroxides in cells. […] The accumulation of lipid peroxides and overall ROS was also detected using a fluorescence-based H2DCF-DA assay as depicted in FIG. 15. […]"}, "[2]": {"test_system": "MDA-MB-231", "test": "Cell viability, CellTiter-Glo assay, MDA-MB-231", "conditions": "Homo sapiens; MDA-MB-231, cell viability", "method": "(§1) The viability of screened cancer cells was recorded using a luminescence-based CellTiter-Glo® assay for the ATP quantification. The screening concentration of the molecule ranged from 100/10 μM to 45/4.5 nM with an 8-point-3-fold dilution series in DMEM media (>0.1% DMSO as control). Each experiment was conducted in more than two biological replicates with three technical replicates. The error bar is a representation of standard deviation among the technical replicates.\nas §1, with “IITK3002” for “the molecule”, “10” for “100/10”, “4.5” for “45/4.5”\n(§2) a. […] In parallel, we have also synthesized the bromoacetamide (IITK3002) version of the lead molecules which is slightly more reactive with thiol nucleophiles when compared to chlorooacetamide warheads as depicted in FIG. 13. […] In addition, we also evaluated the molecules' antiproliferative potency against a panel of twelve different cancer phenotypes. […]"}, "[3]": {"test_system": "A375", "test": "Cell viability, CellTiter-Glo assay, A375", "conditions": "Homo sapiens, A-375", "method": "as §1\nas §1, with “IITK3002” for “the molecule”, “10” for “100/10”, “4.5” for “45/4.5”\nas §2"}, "[4]": {"test_system": "4T1", "test": "Cell viability, CellTiter-Glo assay, 4T1", "conditions": "Mus musculus; 4T1, cell viability", "method": "as §1\nas §1, with “IITK3002” for “the molecule”, “10” for “100/10”, “4.5” for “45/4.5”\nas §2"}},
  "note": "pEC50: −log10 of the molar value.",
  "data": [
    {"smiles": "CN(C(=O)CCl)c1ccccc1C(=O)c1ccccc1", "note": "[IITK3001, N-(2-benzoylphenyl)-2-chloro-N-methylacetamide]", "values": [
      {"measurement": "intracellular ROS, H2DCF-DA fluorescence intensity", "setting": "[1]", "result": "intracellular ROS generation"},
      {"measurement": "pEC50", "setting": "[2]", "result": 6.74},
      {"measurement": "pEC50", "setting": "[3]", "result": 6.45},
      {"measurement": "pEC50", "setting": "[4]", "result": 6.30}
    ]},
    {"smiles": "CN(C(=O)CBr)c1ccccc1C(=O)c1ccccc1", "note": "[IITK3002, N-(2-benzoylphenyl)-2-bromo-N-methylacetamide]", "values": [
      {"measurement": "intracellular ROS, H2DCF-DA fluorescence intensity", "setting": "[1]", "result": "intracellular ROS generation"},
      {"measurement": "pEC50", "setting": "[2]", "result": 7.59},
      {"measurement": "pEC50", "setting": "[4]", "result": 7.18}
    ]}
  ]
}
